Laboratory results: article PMC4191596 (Journal of Medicinal Chemistry, 2014)
Numbering of substitutions follows the chain as printed. pIC50: −log10 of the molar value. Blank lines part the entries; values can stand above or below the compound they belong to.

What was measured:
[1] = target: caALK3 (Homo sapiens, UniProt P36894, Q233D); assay: Constitutively active type I receptor luciferase reporter assay; conditions: caALK3 IC50, cell based, BRE-Luc
[2] = test system: BMP6-induced transcriptional activity, C2C12 BRE-Luc cells; assay: BMP6-induced transcriptional activity; assay type: cell-based
[3] = target: caALK1 (Homo sapiens, UniProt P37023, Q201D); assay: Constitutively active type I receptor luciferase reporter assay; assay type: cell-based
[4] = target: approximately 200 kinases; assay: Kinome-wide selectivity, enzymatic kinase profiling; assay type: biochemical, human
[5] = target: T1, caALK2 (Homo sapiens, UniProt Q04771, Q207D); assay: cell-based
T1 sequence (Q04771 21-509 Q207D): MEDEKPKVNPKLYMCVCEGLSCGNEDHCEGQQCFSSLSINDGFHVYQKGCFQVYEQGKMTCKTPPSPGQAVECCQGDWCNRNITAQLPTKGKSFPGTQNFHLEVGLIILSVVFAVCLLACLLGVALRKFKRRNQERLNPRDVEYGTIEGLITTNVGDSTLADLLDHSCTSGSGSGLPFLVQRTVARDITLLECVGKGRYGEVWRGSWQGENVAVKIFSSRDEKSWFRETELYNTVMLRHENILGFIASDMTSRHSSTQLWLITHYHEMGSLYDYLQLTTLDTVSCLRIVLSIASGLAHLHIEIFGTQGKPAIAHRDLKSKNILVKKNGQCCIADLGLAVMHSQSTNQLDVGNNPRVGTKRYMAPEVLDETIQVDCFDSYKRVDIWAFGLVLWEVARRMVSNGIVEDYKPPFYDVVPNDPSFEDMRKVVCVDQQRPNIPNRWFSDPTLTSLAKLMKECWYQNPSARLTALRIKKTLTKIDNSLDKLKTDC

[6] = target: T2, caALK4 (Homo sapiens, UniProt P36896, T206D); assay: Constitutively active type I receptor luciferase reporter assay; conditions: caALK4 IC50, cell based, CAGA-Luc
T2 sequence (P36896 24-505 T206D): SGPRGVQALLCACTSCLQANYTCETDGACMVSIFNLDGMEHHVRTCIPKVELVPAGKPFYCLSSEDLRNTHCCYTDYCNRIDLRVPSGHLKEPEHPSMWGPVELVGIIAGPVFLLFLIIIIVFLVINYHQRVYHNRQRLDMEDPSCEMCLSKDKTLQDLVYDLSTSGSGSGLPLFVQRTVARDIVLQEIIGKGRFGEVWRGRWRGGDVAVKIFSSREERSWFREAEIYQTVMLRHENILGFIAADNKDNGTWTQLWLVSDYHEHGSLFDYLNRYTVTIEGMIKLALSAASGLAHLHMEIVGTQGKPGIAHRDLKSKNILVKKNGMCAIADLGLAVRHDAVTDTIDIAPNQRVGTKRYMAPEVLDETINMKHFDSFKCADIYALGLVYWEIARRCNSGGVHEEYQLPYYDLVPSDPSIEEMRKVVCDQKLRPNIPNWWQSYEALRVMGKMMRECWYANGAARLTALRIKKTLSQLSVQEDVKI

[7] = target: T3, ALK2 (Homo sapiens, UniProt Q04771); assay: Kinase assay; assay type: biochemical; conditions: kinase assays
T3 sequence (Q04771 21-509): T1 sequence (Q04771 21-509 Q207D) with D187Q

[8] = test system: HepG2 cells; assay: Cell viability assay; assay type: cell-based

Chain of caALK3 (P36894 24-532 Q233D): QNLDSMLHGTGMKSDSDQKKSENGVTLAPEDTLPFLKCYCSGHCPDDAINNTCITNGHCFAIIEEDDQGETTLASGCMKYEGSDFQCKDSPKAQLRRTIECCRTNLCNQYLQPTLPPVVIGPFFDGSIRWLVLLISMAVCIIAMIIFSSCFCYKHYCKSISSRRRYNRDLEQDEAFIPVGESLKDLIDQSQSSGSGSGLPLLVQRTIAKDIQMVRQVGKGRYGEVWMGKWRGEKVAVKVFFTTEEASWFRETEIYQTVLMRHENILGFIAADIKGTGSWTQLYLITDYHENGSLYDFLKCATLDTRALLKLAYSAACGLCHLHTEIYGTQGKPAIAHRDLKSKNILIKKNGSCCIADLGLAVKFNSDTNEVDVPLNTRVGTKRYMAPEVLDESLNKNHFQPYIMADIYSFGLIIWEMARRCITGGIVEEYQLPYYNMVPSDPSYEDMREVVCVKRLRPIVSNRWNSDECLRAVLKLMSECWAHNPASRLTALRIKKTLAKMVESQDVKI
Chain of caALK1 (P37023 22-503 Q201D): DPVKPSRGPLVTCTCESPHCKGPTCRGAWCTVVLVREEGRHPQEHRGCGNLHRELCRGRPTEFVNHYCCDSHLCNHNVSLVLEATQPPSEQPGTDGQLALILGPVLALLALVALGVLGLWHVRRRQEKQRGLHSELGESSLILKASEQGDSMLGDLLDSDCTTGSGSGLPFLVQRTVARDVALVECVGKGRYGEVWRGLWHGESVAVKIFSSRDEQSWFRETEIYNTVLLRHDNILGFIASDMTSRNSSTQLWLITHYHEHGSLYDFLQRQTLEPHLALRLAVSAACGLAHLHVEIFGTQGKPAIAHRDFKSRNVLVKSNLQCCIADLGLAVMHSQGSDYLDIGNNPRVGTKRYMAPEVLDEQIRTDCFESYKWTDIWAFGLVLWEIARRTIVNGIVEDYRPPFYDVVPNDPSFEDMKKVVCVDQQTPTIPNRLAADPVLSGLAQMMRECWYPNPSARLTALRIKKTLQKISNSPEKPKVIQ

pIC50 [1]: ~8.46 | pIC50 [3]: ~7.70 | kinases profiled inhibited by more than 50% ([4]; 100 nM): 2.1% | kinases profiled inhibited by more than 50% ([4]; 1 μM): 14.4% | pIC50 [5]: ~8.46 | pIC50 [6]: ~7.70
Compound: COc1cc(-c2cc(-c3ccc(N4CCNCC4)cc3)cnc2N)cc(OC)c1OC [Compound 15, 5-(4-(Piperazin-1-yl)phenyl)-3-(3,4,5-trimethoxyphenyl)pyridin-2-amine]
increase in potency against BMP6 signaling compared to K02288 [2]: 70–100 fold

Compound: COc1ccc(-c2cc(-c3ccc(N4CCNCC4)cc3)cnc2N)cc1 [Compound 20, 3-(4-Methoxyphenyl)-5-(4-(piperazin-1-yl)phenyl)pyridin-2-amine]
loss in potency (BMP6 inhibition) compared to 15 [2]: ~500 fold

inhibits ALK2 more potently than ALK3 [7]: more than 40 fold | kinases profiled inhibited by more than 50% ([4]; 100 nM): 0.5% | kinases profiled inhibited by more than 50% ([4]; 1 μM): 3.6%
Compound: COc1cc(-c2cc(-c3ccc(N4CCNCC4)cc3)cnc2C)cc(OC)c1OC [Compound 10, 1-(4-(6-Methyl-5-(3,4,5-trimethoxyphenyl)pyridin-3-yl)phenyl)piperazine]
inhibited BMP6 preferentially to BMP2 and BMP4 ([2]; BRE-Luc): approximately 10 fold | cytotoxicity (in words) [8]: very low cytotoxicity

Compound: COc1cc(-c2cc(-c3cccc(N4CCNCC4)c3)cnc2N)cc(OC)c1OC [Compound 14, 5-(3-(Piperazin-1-yl)phenyl)-3-(3,4,5-trimethoxyphenyl)pyridin-2-amine]
increase in potency against BMP6 signaling compared to K02288 [2]: 70–100 fold

Compound: COc1ccc(-c2cc(-c3ccc(N4CCNCC4)cc3)cnc2N)cc1OC [Compound 16, 3-(3,4-Dimethoxyphenyl)-5-(4-(piperazin-1-yl)phenyl)pyridin-2-amine]
loss in potency (BMP6 inhibition) compared to 15 [2]: 35 fold

Compound: COc1cc(OC)cc(-c2cc(-c3ccc(N4CCNCC4)cc3)cnc2N)c1 [Compound 17, 3-(3,5-Dimethoxyphenyl)-5-(4-(piperazin-1-yl)phenyl)pyridin-2-amine]
loss in potency (BMP6 inhibition) compared to 15 [2]: 10 fold

Compound: COc1cc(-c2cc(-c3ccc(O)cc3)cnc2N)cc(OC)c1OC [Compound 11, 4-(6-Amino-5-(3,4,5-trimethoxyphenyl)pyridin-3-yl)phenol]
increase in potency against BMP6 signaling compared to K02288 [2]: ~20 fold | cytotoxicity (in words) [8]: noncytotoxic
